Assay results as given in ChEMBL document CHEMBL4359852, “Design, synthesis and biological evaluation of novel 5-(piperazin-1-yl)quinolin-2(1H)-one derivatives as potential chitin synthase inhibitors and antifungal agents” (Eur J Med Chem, 2019).

Key:
Escherichia coli = assay: Antibacterial activity against Escherichia coli JM109 assessed as reduction in bacterial cell growth incubated for overnight by two-fold serial dilution method; format: functional
Proteus vulgaris = assay: Antibacterial activity against Bacillus proteus ATCC 8427 assessed as reduction in bacterial cell growth incubated for overnight by two-fold serial dilution method; format: functional
[1] = Inhibition of Saccharomyces cerevisiae CGMCC 2.145 chitin synthase using GlcNAc and UDP-GlcNAc as substrate incubated for 60 mins by microplate reader analysis
Staphylococcus aureus [2] = assay: Antibacterial activity against Staphylococcus aureus ATCC 25923 assessed as reduction in bacterial cell growth incubated for overnight by two-fold serial dilution method; format: functional
Cryptococcus neoformans = assay: Antifungal activity against Cryptococcus neoformans ATCC 32719 assessed as reduction in fungal cell growth incubated for 48 hrs by two-fold serial dilution method; format: functional; settings: ATCC 32719, 48 h
Bacillus subtilis = assay: Antibacterial activity against Bacillus subtilis ATCC 6633 assessed as reduction in bacterial cell growth incubated for overnight by two-fold serial dilution method; format: functional
Candida albicans = assay: Antifungal activity against Candida albicans ATCC 76615 assessed as reduction in fungal cell growth incubated for 48 hrs by two-fold serial dilution method; format: functional; settings: ATCC 76615, 48 h
Aspergillus flavus = assay: Antifungal activity against Aspergillus flavus ATCC 16870 assessed as reduction in fungal cell growth incubated for 48 hrs by two-fold serial dilution method; format: functional; settings: ATCC 16870, 48 h
Pseudomonas aeruginosa = assay: Antibacterial activity against Pseudomonas aeruginosa ATCC 9027 assessed as reduction in bacterial cell growth incubated for overnight by two-fold serial dilution method; format: functional
Staphylococcus aureus [3] = assay: Antibacterial activity against methicillin resistant Staphylococcus aureus N 315 assessed as reduction in bacterial cell growth incubated for overnight by two-fold serial dilution method; format: functional
Saccharomyces cerevisiae = assay: Inhibition of Saccharomyces cerevisiae CGMCC 2.145 chitin synthase using GlcNAc and UDP-GlcNAc as substrate at 300 ug/ml incubated for 60 mins by microplate reader analysis relative to control

Row | Compound | MIC (Escherichia coli) [µg/mL] | MIC (Proteus vulgaris) [µg/mL] | IC50 [1] [µM] | MIC (Staphylococcus aureus [2]) [µg/mL] | MIC (Cryptococcus neoformans) [µg/mL] | MIC (Bacillus subtilis) [µg/mL] | MIC (Candida albicans) [µg/mL] | MIC (Aspergillus flavus) [µg/mL] | MIC (Pseudomonas aeruginosa) [µg/mL] | MIC (Staphylococcus aureus [3]) [µg/mL] | inhibition (Saccharomyces cerevisiae) [%]
1 | Cl.O=C1CCc2c(cccc2N2CCN(C[C@@H](O)CNc3ccc(Br)cc3)CC2)N1 | 256 | 128 | 350 | 64 | 128 | 64 | 64 | 128 | 128 | 128 | –
2 | Cl.O=C1CCc2c(cccc2N2CCN(C[C@@H](O)CNc3ccccc3)CC2)N1 | 128 | 256 | 190 | 128 | 128 | 128 | 128 | 128 | 128 | 128 | –
3 | Cl.O=C1CCc2c(cccc2N2CCN(C[C@H](O)CNc3ccccc3)CC2)N1 | 256 | 128 | 170 | 256 | 256 | 256 | 64 | 128 | 256 | 128 | –
4 | Cl.O=C1CCc2c(cccc2N2CCN(C[C@H](O)CNc3ccc(Cl)cc3)CC2)N1 | 128 | 128 | 380 | 128 | 256 | 128 | 32 | 128 | 256 | 128 | –
5 | CCCCNC[C@@H](O)CN1CCN(c2cccc3c2CCC(=O)N3)CC1.Cl | 256 | 256 | 310 | 256 | 128 | 256 | 128 | 256 | 256 | 256 | –
6 | COc1ccc(NC[C@@H](O)CN2CCN(c3cccc4c3CCC(=O)N4)CC2)cc1.Cl | 64 | 128 | 120 | 128 | 128 | 128 | 64 | 256 | 256 | 128 | –
7 | Cl.O=C1CCc2c(cccc2N2CCN(C[C@@H](O)CNc3ccc(Cl)cc3)CC2)N1 | 128 | 128 | 360 | 64 | 128 | 64 | 32 | 128 | 256 | 64 | –
8 | Cl.O=C1CCc2c(cccc2N2CCN(C[C@H](O)CNc3ccc(Br)cc3)CC2)N1 | 128 | 256 | 330 | 64 | 128 | 128 | 128 | 64 | 128 | 64 | –
9 | COc1ccc(NC[C@H](O)CN2CCN(c3cccc4c3CCC(=O)N4)CC2)cc1.Cl | 32 | 256 | 120 | 64 | 256 | 256 | 32 | 128 | 128 | 128 | –
10 | Cc1ccc(NCC(O)CN2CCN(c3cccc4c3CCC(=O)N4)CC2)cc1.Cl (racemic) | 128 | 64 | – | 64 | > 512 | 128 | 128 | 128 | 128 | 64 | 17.6
11 | Cl.O=C1CCc2c(cccc2N2CCN(CC(O)CNCc3ccc(Cl)cc3)CC2)N1 (racemic) | 256 | 128 | – | 256 | 256 | 256 | 128 | 256 | 256 | 256 | 42.5
12 | Cc1ccccc1NCC(O)CN1CCN(c2cccc3c2CCC(=O)N3)CC1.Cl (racemic) | 256 | 128 | – | 128 | 256 | 128 | 128 | 256 | 128 | 128 | 28.4
13 | Cl.O=C1CCc2c(cccc2N2CCN(CC(O)Cn3cnnc3)CC2)N1 (racemic) | 64 | 64 | – | 128 | 128 | 128 | 64 | 256 | 128 | 256 | 30.8
14 | Cl.O=C1CCc2c(cccc2N2CCN(CC(O)CN3CCCCCC3)CC2)N1 (racemic) | 256 | 256 | – | 256 | 256 | 256 | 128 | 256 | 256 | 512 | 45.4
